Source: PMC11887451, “Leveraging Immunogenic Cell Death to Enhance the Immune Response against Malignant Pleural Mesothelioma Tumors” (Journal of the American Chemical Society, 2025)
“Also recorded” adds a separate entry of the source.

Columns and labels:
[1] = test system: AB12 cells in BALB/c mice; experiment: In vivo vaccination model; parameters: species or system mouse; conditions: n = 8
Text: Initially, AB12 cells underwent pretreatment with varying concentrations of Au(III) complexes, and the induced cell death and release of desired ICD biomarkers were monitored over time. Upon reaching a cell death rate of 65%–75%, BALB/c mice (n = 8) were subcutaneously injected in the left flank with a vaccine containing 3 × 10^5 of live/dying/dead cells, while the vehicle group received injections of PBS. Seven days postvaccine administration, the immunized mice were rechallenged by inoculating the same number of live AB12 cells (without any prior treatment) into the right flanks (Figure 5A). The progression of tumor growth on the right flanks was monitored using a caliper.
AB12 cells were seeded into Cellstar 24-well plates (Greiner Bio-One) at a density of 1.8 × 104
cells/ml (1 ml per well) and allowed to grow exponentially for 16 hours. Subsequently, the
medium was replaced with 1 ml of fresh medium containing compounds of interest at
predetermined concentrations (with a minimum of 4 wells per treatment condition). These
concentrations were selected to induce 65-75% cell death.
Subsequently, the culture
medium was aspirated, and the cells were washed twice with 1 mL of PBS. The cell
concentration was adjusted to 3 × 10^5 cells (including dead/dying/live cells) per 100 μL of PBS,
and the ratio of dead/live cells was assessed using the Invitrogen Countess 3 cell counter. In
the subsequent experiment, BALB/c mice (8 mice per group) were subcutaneously injected
with 0.1 mL of AB12 cells (3 × 10^5 cells/mL, including dead/dying/live cells) or the
corresponding vehicle (PBS) on the left flank. Tumor growth was monitored daily.
After 7 days, the mice were subcutaneously injected with
0.1 mL of AB12 cells (3 × 10^5 cells/mL, live cells) on the right flank. Regular measurements
of body weights and tumor sizes were taken. Mice that developed palpable tumors were
euthanized for further analysis.

[2] = test system: AB12 cells; experiment: Annexin V/PI assay (necrosis), flow cytometry; type: cell-based, mouse; conditions: AB12, 5 × IC50 (72 h), 100 min
Experimental: centrifugation of the cells (300 × g, 5 min), 5 ml of fresh RPMI was introduced, and the cells were seeded at a density of 5 x 10^5 cells per well into Cellstar 6-well plates (Greiner Bio-One) (1 ml per well). J774 macrophages (70-80% confluence in a T75 flask) were detached by scraping, centrifuged (300 × g, 5 min). The medium was substituted with 1 ml of DMEM containing CellTracker Green CMFDA (1 μM) and the J774 macrophages were stained at 37°C for 30 minutes. Following centrifugation of the J774 macrophages (300 × g, 5 min), 5 ml of fresh DMEM was introduced, and the macrophages were seeded into a 100 cm2 petri dish (SPL Life Sciences, Korea). After 24 h, the media in AB12 cells was replaced with 1 ml of fresh RPMI containing compounds of interest at equipotent concentration of 5 × IC50 and incubated for 100 minutes. After removing the drug-containing media, the cells were trypsinized (0.5 ml), neutralized with 1 ml of RPMI, centrifuged (300 × g, 5 min) and counted. From each sample, 2 × 10^5 AB12 cells were seeded into Cellstar 6-well plates (Greiner Bio-One) (1 ml per well).
2 × 10^5 J774 macrophages were detached from a petri dish by scraping and added to AB12 cells into 6-well plates. AB12 cells and J774 macrophages were co-incubated for 16 h at 37°C and 5% CO2, detached by scraping, centrifuged (300 × g, 5 min), and the pellets were resuspended in PBS for immediate analysis using a CytoFLEX Flow Cytometer (Beckman Coulter, USA). The percentage of phagocytosis was determined by calculating the number of double-positive macrophages (Q2) over the total number of macrophages (Q2 + Q3). Dot plots […]
analysis of the flow cytometry data. […]
concentrations for 100 min at 37 °C. […] Cell death was evaluated by flow cytometry using a CytoFLEX Flow Cytometer equipped with a 488 nm laser and a 638 nm laser (Beckman Coulter, Brea, CA, USA). The cells were excited by the 488 nm laser, and fluorescence emissions were detected at 525/40 nm for FITC (Annexin V) and at 610/20 nm for ECD (PI).
The percentage of necrosis was determined by calculating the sum of cells in Q1 and Q2. […]

[3] = test system: M0-differentiated THP-1 cells; experiment: MTT-based viability assay on M0-differentiated THP-1 cells, 72 h; type: cell-based, human; conditions: 72-h exposure, compared with AB12 cells
Experimental: incubated for an additional 50 min. Subsequently, the medium was aspirated, and the purple formazan crystals formed in viable cells were dissolved in DMSO (100 μL/well). Optical densities were measured at 570 nm using a BioTek Synergy H1 microplate and MultiskanTM SkyHigh plate readers. The quantity of viable cells was expressed in terms of treated/control (T/C) values in comparison to untreated control cells, and 50% inhibitory concentrations (IC 50) were calculated from concentration-effect curves by interpolation. An evaluation was based on means from at least three independent experiments, each comprising three replicat es per […]
For macrophage analyses, the acute monocytic leukemia -derived THP-1 cell line (ATCC) was used as a model. 1 × 104 THP-1 cells were seeded per well in 96-well plates in RPMI-1640 with 10% FCS and treated for 24 h with 75 nM phorbol 12-myristate 13-acetate (PMA, Sigma-Aldrich) to induce M0 macrophage differentiation. After the differentiation period, PMA was replaced by fresh culture medium to recover for 2h. Afterwards increasing concentrations of 1G, 5A, 5B and 5G were added for a 72-h continuous drug exposure assay. In parallel, the murine mesothelioma cell line AB12 was seeded into 96 -well plates at 2.5 × 10^3 cells/well and were allowed to attach for 24 h. Gold compounds were added to the cells as described for the THP-1 model above. After the incubation period of 72 h, cell viability was determined by an MTT-based assay (EU4U, Biomedica) following the instructions of the manufacturer. DMSO had not impact on the cell viability at the concentrations used. […]

SMILES	mice that developed tumors by Day 51 [1]	necrosis level (Q1 + Q2) [2]	sensitivity of THP-1-derived macrophages [3]
Nc1nc2[nH]cc(CCc3ccc(C(=O)N[C@@H](CCC(=O)O)C(=O)O)cc3)c2c(=O)[nH]1 [Pemetrexed, pemetrexed, reference compound]	four of the eight		
F[P-](F)(F)(F)(F)F.c1cc[c]2c(c1)Nc1cccc[n+]1[Au-]21[S]C(=[N+]2CCCCCC2)[S]1 (stereo not drawn) [5G]		6%–8%	highly sensitive; also recorded: increased sensitivity in comparison to the malignant mesothelioma cells
